Experimental data published in patent US11369618B2, “Compounds, compositions and methods for prevention and/or treatment of cancer” (THE TRUSTEES OF THE UNIVERSITY OF PENNSYLVANIA, priority 2016, dated 2022).

System: B16F10 melanoma cells
Assay: melanoma cells treated with G-1, HDACi, or in combination (Western blot, B16F10 proliferation assay)
Format: cell-based
From the text: FIG. 16B: Western blot of p-RB, c-Myc, and H3K56ac in melanoma cells after treatment with G-1, HDACi, or in combination. FIG. 16C: Proliferation assay of B16F10 melanoma cells after treatment with G-1, HDACi, or in combination.
Histone acetyl marks are removed by several histone deacetylases (HDACs), which are aberrantly regulated in many cancers. Although HDAC inhibitors are approved as anticancer agents for cutaneous lymphoma, myeloma, and […], their utility in melanoma is unclear. […] HDAC efficacy may have been limited by the fact that trials were conducted without a differentiation driver to promote formation of acetylation marks on histones or other critical oncoproteins (such as c-Myc) that would then be stabilized by the HDACi. Without wishing to be limited by any theory, the anticancer effects of HDAC inhibitors can be potentiated by combination drug regimens that also promote histone acetylation at functionally critical sites. HDACi and GPER agonists independently promote melanoma cell differentiation, and also cooperate to potentiate the activity of each other (FIGS. 16B-16C).

CC(=O)c1ccc2c(c1)[C@@H]1C=CC[C@@H]1[C@H](c1cc3c(cc1Br)OCO3)N2 (relative stereo) [Compound G-1, rel-1-[4-(6-bromo-1,3-benzodioxol-5-yl)-3aR,4S,5,9bS-tetrahydro-3H-cyclopenta[c]quinolin-8-yl]-ethanone]
combined effect of G-1 and HDACi in melanoma cells: synergizes with HDAC inhibitors
